± gives the uncertainty stated by the source.
Experiment: xn = mol fraction of the nth substance listed
Conditions: 101 kPa; for viscosity: x1 = 0.3333

CCCCCCCCCCCCCC[n+]1ccccc1.O=C([O-])C(O)c1ccccc1 + CC(C)[C@H](N)C(=O)O + O
electrical conductivity [S/m]
Conditions | 293.15 K | 298.15 K | 303.15 K | 308.15 K | 313.15 K
x1 = 6.19e-06, x2 = 0.001799 | 0.00217 ± 0.00055 | 0.00247 ± 0.00062 | 0.00278 ± 0.00069 | 0.00312 ± 0.00077 | 0.00346 ± 0.00085
x1 = 6.85e-06, x2 = 0 | 0.00248 ± 0.00074 | 0.00278 ± 0.00083 | 0.00309 ± 0.00092 | 0.0034 ± 0.001 | 0.0037 ± 0.0011
x1 = 8.87e-06, x2 = 0.0009002 | 0.00274 ± 0.00063 | 0.00311 ± 0.00071 | 0.00349 ± 0.00079 | 0.00388 ± 0.00088 | 0.00427 ± 0.00097
x1 = 1.146e-05, x2 = 0.001799 | 0.00366 ± 0.00071 | 0.00413 ± 0.0008 | 0.00464 ± 0.0009 | 0.0052 ± 0.001 | 0.0057 ± 0.0011
x1 = 1.424e-05, x2 = 0 | 0.00472 ± 0.00079 | 0.00529 ± 0.00089 | 0.00587 ± 0.00099 | 0.0065 ± 0.0011 | 0.0071 ± 0.0012
x1 = 1.485e-05, x2 = 0.0009002 | 0.00439 ± 0.00076 | 0.00496 ± 0.00085 | 0.00555 ± 0.00096 | 0.0061 ± 0.0011 | 0.0068 ± 0.0012
x1 = 1.674e-05, x2 = 0.001799 | 0.0051 ± 0.00079 | 0.00578 ± 0.00089 | 0.0065 ± 0.001 | 0.0072 ± 0.0011 | 0.008 ± 0.0012
x1 = 1.847e-05, x2 = 0.0009002 | 0.00537 ± 0.00079 | 0.00606 ± 0.00088 | 0.0068 ± 0.001 | 0.0075 ± 0.0011 | 0.0083 ± 0.0012
x1 = 2.126e-05, x2 = 0 | 0.00671 ± 0.0009 | 0.0076 ± 0.001 | 0.0084 ± 0.0011 | 0.0093 ± 0.0013 | 0.0101 ± 0.0014
x1 = 2.202e-05, x2 = 0.001799 | 0.00655 ± 0.00089 | 0.0074 ± 0.001 | 0.0083 ± 0.0011 | 0.0093 ± 0.0013 | 0.0102 ± 0.0014
x1 = 2.264e-05, x2 = 0.0009002 | 0.00641 ± 0.00083 | 0.0072 ± 0.00093 | 0.0081 ± 0.001 | 0.009 ± 0.0012 | 0.0099 ± 0.0013
x1 = 2.693e-05, x2 = 0.001799 | 0.00788 ± 0.00098 | 0.0089 ± 0.0011 | 0.01 ± 0.0012 | 0.0111 ± 0.0014 | 0.0123 ± 0.0015
x1 = 2.698e-05, x2 = 0.0009002 | 0.00756 ± 0.00096 | 0.0086 ± 0.0011 | 0.0096 ± 0.0012 | 0.0106 ± 0.0014 | 0.0117 ± 0.0015
x1 = 2.811e-05, x2 = 0 | 0.0086 ± 0.001 | 0.0097 ± 0.0012 | 0.0108 ± 0.0013 | 0.0122 ± 0.0015 | 0.0131 ± 0.0016
x1 = 3.187e-05, x2 = 0.0009002 | 0.0089 ± 0.001 | 0.01 ± 0.0012 | 0.0113 ± 0.0013 | 0.0125 ± 0.0015 | 0.0138 ± 0.0016
x1 = 3.257e-05, x2 = 0.001799 | 0.0094 ± 0.0011 | 0.0106 ± 0.0012 | 0.0119 ± 0.0014 | 0.0132 ± 0.0015 | 0.0146 ± 0.0017
x1 = 3.46e-05, x2 = 0 | 0.0103 ± 0.0011 | 0.0116 ± 0.0013 | 0.0129 ± 0.0014 | 0.0145 ± 0.0016 | 0.0157 ± 0.0018
x1 = 3.876e-05, x2 = 0.001799 | 0.0107 ± 0.0012 | 0.0121 ± 0.0013 | 0.0136 ± 0.0015 | 0.0152 ± 0.0016 | 0.0169 ± 0.0018
x1 = 3.93e-05, x2 = 0.0009001 | 0.0105 ± 0.0011 | 0.0119 ± 0.0013 | 0.0133 ± 0.0014 | 0.0148 ± 0.0016 | 0.0164 ± 0.0018
x1 = 4.108e-05, x2 = 0 | 0.0117 ± 0.0012 | 0.0131 ± 0.0014 | 0.0146 ± 0.0015 | 0.0161 ± 0.0017 | 0.0179 ± 0.0019
x1 = 4.549e-05, x2 = 0.001799 | 0.0119 ± 0.0012 | 0.0134 ± 0.0014 | 0.0151 ± 0.0016 | 0.0169 ± 0.0018 | 0.0188 ± 0.0019
x1 = 4.618e-05, x2 = 0.0009001 | 0.0116 ± 0.0012 | 0.0131 ± 0.0014 | 0.0147 ± 0.0015 | 0.0165 ± 0.0017 | 0.0183 ± 0.0019
x1 = 4.811e-05, x2 = 0 | 0.0129 ± 0.0013 | 0.0144 ± 0.0015 | 0.0161 ± 0.0017 | 0.0179 ± 0.0019 | 0.0198 ± 0.0021
x1 = 5.295e-05, x2 = 0.001799 | 0.0129 ± 0.0013 | 0.0146 ± 0.0015 | 0.0164 ± 0.0017 | 0.0183 ± 0.0019 | 0.0203 ± 0.0021
x1 = 5.324e-05, x2 = 0.0009001 | 0.0126 ± 0.0013 | 0.0142 ± 0.0014 | 0.0159 ± 0.0016 | 0.0178 ± 0.0018 | 0.0198 ± 0.002
x1 = 5.388e-05, x2 = 0 | 0.0137 ± 0.0014 | 0.0154 ± 0.0016 | 0.0172 ± 0.0018 | 0.0191 ± 0.002 | 0.0211 ± 0.0022
x1 = 5.982e-05, x2 = 0 | 0.0145 ± 0.0015 | 0.0163 ± 0.0017 | 0.0182 ± 0.0019 | 0.0202 ± 0.0021 | 0.0224 ± 0.0023
x1 = 6.012e-05, x2 = 0.0009001 | 0.0134 ± 0.0014 | 0.015 ± 0.0015 | 0.017 ± 0.0017 | 0.0191 ± 0.002 | 0.0212 ± 0.0022
x1 = 6.078e-05, x2 = 0.001799 | 0.014 ± 0.0014 | 0.0158 ± 0.0016 | 0.0177 ± 0.0018 | 0.0198 ± 0.002 | 0.0221 ± 0.0023
x1 = 6.559e-05, x2 = 0 | 0.0153 ± 0.0016 | 0.0172 ± 0.0018 | 0.0192 ± 0.0019 | 0.0213 ± 0.0022 | 0.0236 ± 0.0024
x1 = 6.609e-05, x2 = 0.0009001 | 0.0142 ± 0.0014 | 0.016 ± 0.0016 | 0.018 ± 0.0018 | 0.0202 ± 0.0021 | 0.0224 ± 0.0023
x1 = 6.788e-05, x2 = 0.001799 | 0.015 ± 0.0015 | 0.0169 ± 0.0017 | 0.0189 ± 0.0019 | 0.0211 ± 0.0022 | 0.0236 ± 0.0024
x1 = 7.081e-05, x2 = 0 | 0.016 ± 0.0016 | 0.018 ± 0.0018 | 0.02 ± 0.002 | 0.0223 ± 0.0023 | 0.0246 ± 0.0025
x1 = 7.153e-05, x2 = 0.0009001 | 0.0149 ± 0.0015 | 0.0168 ± 0.0017 | 0.0189 ± 0.0019 | 0.0212 ± 0.0022 | 0.0236 ± 0.0024
x1 = 7.424e-05, x2 = 0.001799 | 0.0158 ± 0.0016 | 0.0179 ± 0.0018 | 0.0201 ± 0.002 | 0.0224 ± 0.0023 | 0.0249 ± 0.0025
x1 = 7.604e-05, x2 = 0 | 0.0167 ± 0.0017 | 0.0187 ± 0.0019 | 0.0209 ± 0.0021 | 0.0232 ± 0.0024 | 0.0258 ± 0.0026
x1 = 7.714e-05, x2 = 0.0009001 | 0.0156 ± 0.0016 | 0.0176 ± 0.0018 | 0.0198 ± 0.002 | 0.0223 ± 0.0023 | 0.0248 ± 0.0026
x1 = 8.025e-05, x2 = 0.001799 | 0.0166 ± 0.0017 | 0.0188 ± 0.0019 | 0.0211 ± 0.0021 | 0.0236 ± 0.0024 | 0.0262 ± 0.0027
x1 = 8.072e-05, x2 = 0 | 0.0173 ± 0.0018 | 0.0194 ± 0.002 | 0.0217 ± 0.0022 | 0.0241 ± 0.0024 | 0.0266 ± 0.0027
x1 = 8.257e-05, x2 = 0.0009001 | 0.0163 ± 0.0017 | 0.0185 ± 0.0019 | 0.0208 ± 0.0021 | – | –

C[N+](C)(CCO)CCOCCO.[Cl-] + OCCO
Conditions | viscosity [mPa·s]
283.15 K | 242.4 ± 6.9
288.15 K | 177.4 ± 4.6
293.15 K | 131.9 ± 3.2
298.15 K | 100.9 ± 2.3
303.15 K | 78.8 ± 1.7
308.15 K | 62.2 ± 1.3
313.15 K | 49.8 ± 1
318.15 K | 40.49 ± 0.85
323.15 K | 33.3 ± 0.7
328.15 K | 27.72 ± 0.58
333.15 K | 23.38 ± 0.49
338.15 K | 19.82 ± 0.41
343.15 K | 17 ± 0.36
348.15 K | 14.73 ± 0.31
353.15 K | 12.94 ± 0.27

Reference: the CheMixHub ionic liquid set
